# In patent publication US20160376240A1, “6 Phenyl or 6 Pyridin 3 YL Indazole Derivatives and Methods of Use” (ABBVIE INC., priority 2014, published 2016):
# Key:
# Assay type in all cases: biochemical
# TrkA = target: T1, TrkA (Homo sapiens, UniProt P04629); assay: TrkA kinase inhibition, HTRF assay; conditions: LCK peptide substrate 125 nM, TrkA 2-10 nM pre-incubated with ATP 200 μM
# T1 construct: purchased Invitrogen PV3144
# Method in brief: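 TrkA (2-10 nM) preactivated 20 min with 200 μM ATP in HEPES pH 7.4 with Mg2+/Mn2+, then compound for 10 min, then 125 nM biotinylated LCK-peptide for 1 h at ambient temperature. HTRF 665/620 ratio read; IC50 fitted from initial-rate percent inhibition.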
# TrkC = target: T2, TrkC (Homo sapiens, UniProt Q16288); assay: TrkC kinase inhibition, HTRF assay; conditions: LCK peptide substrate, assay ATP concentration targeted 5 μM
# T2 construct: purchased Invitrogen PV3617
# T2 sequence (Q16288 32-839): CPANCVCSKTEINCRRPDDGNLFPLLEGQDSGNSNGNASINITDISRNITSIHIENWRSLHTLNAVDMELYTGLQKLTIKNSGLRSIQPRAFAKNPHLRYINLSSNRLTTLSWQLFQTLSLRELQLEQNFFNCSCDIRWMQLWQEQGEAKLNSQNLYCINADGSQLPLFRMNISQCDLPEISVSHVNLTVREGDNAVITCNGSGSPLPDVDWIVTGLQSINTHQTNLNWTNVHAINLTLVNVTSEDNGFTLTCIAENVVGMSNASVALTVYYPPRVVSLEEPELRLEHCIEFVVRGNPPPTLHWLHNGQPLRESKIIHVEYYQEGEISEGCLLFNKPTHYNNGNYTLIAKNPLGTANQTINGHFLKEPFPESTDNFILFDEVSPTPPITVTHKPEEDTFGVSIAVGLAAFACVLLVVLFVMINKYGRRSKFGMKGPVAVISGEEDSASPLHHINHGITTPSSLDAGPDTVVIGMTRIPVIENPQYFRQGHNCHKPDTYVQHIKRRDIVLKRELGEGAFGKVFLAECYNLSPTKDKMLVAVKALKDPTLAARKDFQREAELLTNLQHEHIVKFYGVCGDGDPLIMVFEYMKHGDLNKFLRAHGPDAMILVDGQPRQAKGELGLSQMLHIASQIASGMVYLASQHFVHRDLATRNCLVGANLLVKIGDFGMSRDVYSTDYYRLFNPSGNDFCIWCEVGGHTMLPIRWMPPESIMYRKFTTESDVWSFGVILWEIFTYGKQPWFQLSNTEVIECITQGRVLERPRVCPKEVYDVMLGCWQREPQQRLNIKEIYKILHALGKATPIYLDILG
# Method: (§1) TrkA, TrkB, and TrkC enzymes were obtained from Invitrogen (as catalog numbers PV3144, PV3616, and PV3617, respectively). The ability of a compound to inhibit the enzymatic activity of the TrkA, TrkB, and TrkC enzymes was determined in separate assays. Enzyme activity was measured in an HTRF® (homogeneous time resolved fluorescence) assay, which detects enzymatic phosphorylation of a biotinylated synthetic peptide substrate (an LCK peptide analog, biotin-ahx-GAEEEIYAAFFA, from Genemed Synthesis). Phosphorylation is assessed by HTRF® in the presence of an anti-phosphotyrosine antibody conjugated to Eu^3+ cryptate (Cisbio) as donor fluorophore, and streptavidin conjugated to allophycocyanin (ProZyme) as acceptor fluorophore. The HTRF® signal was detected at two different wavelengths (620 nm and 665 nm) which were used to calculate the fluorescence ratio.
# (§2) Each enzyme was titrated to a concentration optimized to ensure accurate measurement of the initial reaction rate. To allow the Trk enzymes to undergo activation and auto-phosphorylation, a 20 minute pre-incubation with ATP was carried out (at twice the final targeted enzyme and ATP concentration) prior to addition of test compound and the peptide substrate.
# (§3) TrkA in vitro assays were performed by pre-incubating TrkA (2-10 nM) with ATP (200 μM) for 20 minutes at ambient temperature in 50 mM HEPES pH 7.4, 10 mM MgCl2, 2 mM MnCl2, 100 μM Na3VO4, 1 mM dithiothreitol, 0.01% BSA (bovine serum albumin). Then, to the activated Trk enzyme mixture was added the test compound in 2% dimethyl sulfoxide. After 10 minutes, the peptide substrate (125 nM) was added. After 1 hour, enzyme reactions were terminated by addition of equal reaction volumes of detection/stop reagent (containing 0.2 μg/mL anti-phosphotyrosine monoclonal antibody labeled with europium from Cisbio (catalog# PT66-K), and 4 μg/mL PhycoLink® Streptavidin-Allophycocyanin conjugate from ProZyme (catalog# PJ25S) in 60 mM EDTA in 40 mM HEPES pH 7.4, 480 mM KF, 0.01% Tween® 20 and 0.1% BSA bovine serum albumin) Reaction plates were stored at 4° C. overnight before reading the fluorescence ratio signal on a PerkinElmer EnVision™ fluorescence detector. Individual reaction wells were stopped at time points to obtain reaction rates. The test inhibitor compounds were assayed in duplicate, at half-log serial dilutions over a range of concentrations (e.g. starting at 50 μM or 5 μM as the high compound concentration). The percent Trk enzyme inhibition was calculated from the initial rates of the inhibited reactions relative to the uninhibited control. IC50 values were calculated by fitting the inhibition percent to the concentration of inhibitor [I] in the assay in equation 1 below, to solve for the IC50.
# (§4) Inhibition %=100[I]/([I]+[IC50]) equation 1
# (§5) The TrkB and TrkC in vitro assays were performed as described above, except that for these enzymes the assay ATP concentration targeted was 5 μM.
# TrkB = target: T3, TrkB (Homo sapiens, UniProt Q16620); assay: TrkB kinase inhibition, HTRF assay; conditions: LCK peptide substrate, assay ATP concentration targeted 5 μM
# T3 construct: purchased Invitrogen PV3616
# T3 sequence (Q16620 32-822): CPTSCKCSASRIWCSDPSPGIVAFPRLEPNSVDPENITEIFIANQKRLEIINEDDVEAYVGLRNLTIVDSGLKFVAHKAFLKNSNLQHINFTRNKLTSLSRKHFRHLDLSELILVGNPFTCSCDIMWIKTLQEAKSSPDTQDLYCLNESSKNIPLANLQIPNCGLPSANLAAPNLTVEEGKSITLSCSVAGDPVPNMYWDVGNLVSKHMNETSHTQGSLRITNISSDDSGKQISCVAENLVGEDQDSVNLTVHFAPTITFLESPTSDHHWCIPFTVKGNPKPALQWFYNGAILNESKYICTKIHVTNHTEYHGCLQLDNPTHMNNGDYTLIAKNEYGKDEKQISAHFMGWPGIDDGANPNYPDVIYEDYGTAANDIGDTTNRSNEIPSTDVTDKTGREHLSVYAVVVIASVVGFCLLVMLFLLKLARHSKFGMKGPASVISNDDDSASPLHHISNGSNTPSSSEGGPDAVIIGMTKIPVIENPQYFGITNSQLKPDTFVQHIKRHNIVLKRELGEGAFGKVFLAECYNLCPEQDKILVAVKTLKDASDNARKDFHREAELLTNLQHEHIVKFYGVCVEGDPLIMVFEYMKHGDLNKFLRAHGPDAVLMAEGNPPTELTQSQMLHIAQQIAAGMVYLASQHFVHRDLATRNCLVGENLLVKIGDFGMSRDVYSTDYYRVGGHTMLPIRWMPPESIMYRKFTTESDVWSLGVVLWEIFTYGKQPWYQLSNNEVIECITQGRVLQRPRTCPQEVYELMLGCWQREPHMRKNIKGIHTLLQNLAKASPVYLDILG
# Method: as §1, §2, §3, §4, §5
# T1 sequence (P04629 33-796): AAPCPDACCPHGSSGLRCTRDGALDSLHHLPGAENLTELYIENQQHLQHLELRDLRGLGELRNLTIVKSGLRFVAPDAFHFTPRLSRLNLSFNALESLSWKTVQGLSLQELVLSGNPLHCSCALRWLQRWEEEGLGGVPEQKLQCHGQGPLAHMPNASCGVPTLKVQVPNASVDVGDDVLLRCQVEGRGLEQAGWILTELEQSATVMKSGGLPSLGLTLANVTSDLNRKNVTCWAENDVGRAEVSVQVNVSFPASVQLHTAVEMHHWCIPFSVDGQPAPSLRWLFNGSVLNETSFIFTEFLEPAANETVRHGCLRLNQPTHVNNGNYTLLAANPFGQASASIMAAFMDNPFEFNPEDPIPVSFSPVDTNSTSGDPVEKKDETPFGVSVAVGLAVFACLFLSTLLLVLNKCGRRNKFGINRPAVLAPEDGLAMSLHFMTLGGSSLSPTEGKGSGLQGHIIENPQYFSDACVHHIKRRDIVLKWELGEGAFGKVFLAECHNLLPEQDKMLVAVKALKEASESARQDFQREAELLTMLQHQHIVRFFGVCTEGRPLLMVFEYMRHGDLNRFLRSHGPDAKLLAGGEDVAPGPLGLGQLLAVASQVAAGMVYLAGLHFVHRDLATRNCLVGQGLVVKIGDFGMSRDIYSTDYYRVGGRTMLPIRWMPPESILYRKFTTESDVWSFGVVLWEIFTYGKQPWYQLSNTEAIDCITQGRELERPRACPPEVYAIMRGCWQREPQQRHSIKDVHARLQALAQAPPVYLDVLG
Compound,IC50 (TrkA) [nM],IC50 (TrkC) [nM],IC50 (TrkB) [nM]
"CNC(=O)c1ccc(-c2cc(O[C@@H](C)C(F)(F)F)c3c(N)n[nH]c3c2)cc1N1CCN(C2CCCCC2)CC1 [Example 47, 4-(3-amino-4-{[(2S)-1,1,1-trifluoropropan-2-yl]oxy}-1H-indazol-6-yl)-2-(4-cyclohexylpiperazin-1-yl)-N-methylbenzamide]",232,300,268
"CC(Oc1cc(-c2ccc(C(N)=O)c(N3CCN(c4ccccc4)CC3)c2)cc2[nH]nc(N)c12)C(F)(F)F (stereo not drawn) [Example 92, 4-{3-amino-4-[(1,1,1-trifluoropropan-2-yl)oxy]-1H-indazol-6-yl}-2-(4-phenylpiperazin-1-yl)benzamide]",3.35,1.72,1.27
"CNC(=O)c1ccc(-c2cc(OC3CCOCC3)c3c(N)n[nH]c3c2)cc1N1CCN(c2ccccc2)CC1 [Example 30, 4-[3-amino-4-(tetrahydro-2H-pyran-4-yloxy)-1H-indazol-6-yl]-N-methyl-2-(4-phenylpiperazin-1-yl)benzamide]",10.4,1.5,1.5
"Nc1n[nH]c2cc(-c3ccc(C(=O)NC4CC4)c(N4CCN(c5ccccc5)CC4)c3)cc(OC3CCOCC3)c12 [Example 23, 4-[3-amino-4-(tetrahydro-2H-pyran-4-yloxy)-1H-indazol-6-yl]-N-cyclopropyl-2-(4-phenylpiperazin-1-yl)benzamide]",15,8.53,8.04
"NC(=O)c1ccc(-c2cc(OC3CCCC3)c3c(N)n[nH]c3c2)cc1N1CCN(C2CCCCC2)CC1 [Example 74, 4-[3-amino-4-(cyclopentyloxy)-1H-indazol-6-yl]-2-(4-cyclohexylpiperazin-1-yl)benzamide]",19,8.32,3.89
"CC(C)N1CCN(c2cc(-c3cc(OC(C)C(F)(F)F)c4c(N)n[nH]c4c3)ccc2C(N)=O)CC1 (stereo not drawn) [Example 101, 4-{3-amino-4-[(1,1,1-trifluoropropan-2-yl)oxy]-1H-indazol-6-yl}-2-(4-isopropylpiperazin-1-yl)benzamide]",377,305,317
"NC(=O)c1ccc(-c2cc(OC3CCCC3)c3c(N)n[nH]c3c2)cc1N1CCN(c2cccnc2)CC1 [Example 69, 4-[3-amino-4-(cyclopentyloxy)-1H-indazol-6-yl]-2-[4-(pyridin-3-yl)piperazin-1-yl]benzamide]",2.95,3.09,1.63
"NC(=O)c1ccc(-c2cc(OC3CCOCC3)c3c(N)n[nH]c3c2)cc1N1CCN(c2cccnc2)CC1 [Example 2, 4-[3-amino-4-(tetrahydro-2H-pyran-4-yloxy)-1H-indazol-6-yl]-2-[4-(pyridin-3-yl)piperazin-1-yl]benzamide]",7.4,3.85,3.09
"CC(C)(C)OC(=O)N1CCN(c2cc(-c3cc(OC4CCCC4)c4c(N)n[nH]c4c3)ccc2C(N)=O)CC1 [Example 73, tert-butyl 4-{5-[3-amino-4-(cyclopentyloxy)-1H-indazol-6-yl]-2-carbamoylphenyl}piperazine-1-carboxylate]",13.7,3.53,3.17
"COc1cncnc1N1CCN(c2cc(-c3cc(OC4CCOCC4)c4c(N)n[nH]c4c3)ccc2C(N)=O)CC1 [Example 6, 4-[3-amino-4-(tetrahydro-2H-pyran-4-yloxy)-1H-indazol-6-yl]-2-[4-(5-methoxypyrimidin-4-yl)piperazin-1-yl]benzamide]",42.1,23.7,15
"NC(=O)c1ccc(-c2cc(OC3CCOCC3)c3c(N)n[nH]c3c2)cc1N1CCN(C2CC2)CC1 [Example 3, 4-[3-amino-4-(tetrahydro-2H-pyran-4-yloxy)-1H-indazol-6-yl]-2-(4-cyclopropylpiperazin-1-yl)benzamide]",55.3,25.7,20.6
"CC(Oc1cc(-c2ccc(C(N)=O)c(N3CCN(c4cccnc4)CC3)c2)cc2[nH]nc(N)c12)C(F)(F)F (stereo not drawn) [Example 91, 4-{3-amino-4-[(1,1,1-trifluoropropan-2-yl)oxy]-1H-indazol-6-yl}-2-[4-(pyridin-3-yl)piperazin-1-yl]benzamide]",5.31,2.89,2.01
"NC(=O)c1ccc(-c2cc(OC3CCCC3)c3c(N)n[nH]c3c2)cc1N1CCN(c2ccccc2)CC1 [Example 71, 4-[3-amino-4-(cyclopentyloxy)-1H-indazol-6-yl]-2-(4-phenylpiperazin-1-yl)benzamide]",4.92,1.67,1.5
"NC(=O)c1ccc(-c2cc(OC3CCCC3)c3c(N)n[nH]c3c2)cc1N1CCN(CCN2CCOCC2)CC1 [Example 70, 4-[3-amino-4-(cyclopentyloxy)-1H-indazol-6-yl]-2-{4-[2-(morpholin-4-yl)ethyl]piperazin-1-yl}benzamide]",34.9,145,83.7
"CNC(=O)c1ccc(-c2cc(OC(C)C(F)(F)F)c3c(N)n[nH]c3c2)cc1N1CCN(C2CC2)CC1 (stereo not drawn) [Example 34, 4-{3-amino-4-[(1,1,1-trifluoropropan-2-yl)oxy]-1H-indazol-6-yl}-2-(4-cyclopropylpiperazin-1-yl)-N-methylbenzamide]",318,318,330
"CC(=O)Nc1ccc(-c2cc(OC3CCOCC3)c3c(C)n[nH]c3c2)cc1OCCOc1ccccc1 [Example 130, N-{4-[3-methyl-4-(tetrahydro-2H-pyran-4-yloxy)-1H-indazol-6-yl]-2-(2-phenoxyethoxy)phenyl}acetamide]",13.7,1.5,1.5
"NC(=O)c1ccc(-c2cc(OC3CCOCC3)c3c(N)n[nH]c3c2)cc1N1CCN(c2ccccc2)CC1 [Example 1, 4-[3-amino-4-(tetrahydro-2H-pyran-4-yloxy)-1H-indazol-6-yl]-2-(4-phenylpiperazin-1-yl)benzamide]",2.66,1.03,0.786
"CNC(=O)c1ccc(-c2cc(OC(C)C)c3c(N)n[nH]c3c2)cc1N1CCN(C2CCCCC2)CC1 [Example 109, 4-(3-amino-4-isopropoxy-1H-indazol-6-yl)-2-(4-cyclohexylpiperazin-1-yl)-N-methylbenzamide]",15.7,4.89,2.58
